In patent US6809096B1, “Phenanthroline-7-one derivatives and their therapeutic uses” (Laboratoire L. Lafon, priority 1999, dated 2004):

Experiments:
[1] = tested on: HS-MXT tumours; assay: In vivo antitumour activity, hormone-sensitive mouse mammary adenocarcinoma MXT (HS-MXT), tumour growth; details: 5 mg/kg intraperitoneally; for Tumour area (expressed as %): decrease (−) or increase (+) in HS-MXT tumour area vs control on the 31st day after grafting, 9 administrations
Description: The tests were carried out on models of:
hormone-sensitive mouse mammary adenocarcinoma MXT (HS-MXT),
The model of mouse mammary adenocarcinoma MXT of Watson C. et al. (Cancer Res., 1977; […]: 3344-48), grafted onto B6D2F1/Jico mice aged from 4 to 6 weeks, is derived from the mammary gland milk ducts. Initially hormone-sensitive (HS-MXT model), the differentiated tumour develops in the direction of an undifferentiated hormone-insensitive tumour (HI-MXT model). […] This is the case, for example, with cyclophosphamide, etoposide or adriamycin.
(§1) When the MTD value of a product was determined, its in vivo antitumour activity was characterized at the MTD/2, MTD/4 and MTD/8 doses on the models of mammary adenocarcinoma of mouse origin HS-MXT and of mouse mammary carcinoma HI-MXT and on the model of subcutaneous lymphoma L 1210.
(§2) In all the examples presented below, whatever the model, the control condition is represented by a batch of 9 or 15 mice to which is administered, for 3 consecutive weeks and at the rate of 3 administrations (Monday, Wednesday and Friday) per week, a volume of 0.2 ml of physiological saline comprising the solvent used to dissolve the various compounds of formula (I) and (Ia) used.
i)—The tumour growth was evaluated by measuring twice weekly (Monday and Friday) the area of the grafted HS-MXT, HI-MXT or L 1210 tumours. This area is calculated by multiplying the value of the two greatest perpendicular axes of the tumour. The value of these axes is measured using a sliding caliper.
The influence of the two products CRL 8293 and CRL 8294 on the growth of HS-MXT tumours will be presented below by way of example. Each batch of mice grafted with the HS-MXT tumours relating to a given experimental condition comprises 9 animals.
The product CRL 8293 is administered intraperitoneally. The first injection of the product is carried out on the seventh day postgrafting (D7) at the rate of 3 injections per week (Monday, Wednesday and Friday) for 3 consecutive weeks and at a dose of 5 mg/kg.
The product CRL 8294 is administered alone by the intraperitoneal route. The first injection of the product is carried out on the seventh day postgrafting (D7) at the rate of 3 injections per week (Monday, Wednesday and Friday) for 3 consecutive weeks and at a dose of 5 mg/kg.
The decreases (−) or the increases (+) in the area of the HS-MXT tumours induced with treatments 10 and 20 with respect to the control condition on the 31st day after the tumour grafting, i.e. after the 9 administrations provided in the experimental protocol of the 2 products CRL 8293 and CRL 8294, are shown, as percentage, in the following Table IV. 100% of the control animals are still alive on the 31st day postgrafting.

[2] = Determination of the maximum tolerated dose (MTD); details: mouse, in vivo, ip; B6D2F1/Jico mice, single intraperitoneal administration, survival over 14 days, doses 2.5 to 160 mg/kg; read-out: DMT (mg/kg) (Maximum Tolerated Doses)
Description: (§3) 2—Determination of the Maximum Tolerated Dose (MTD)
(§4) The evaluation of the maximum tolerated dose was carried out on B6D2F1/Jico mice aged from 4 to 6 weeks. The compounds were administered intraperitoneally at increasing doses ranging from 2.5 to 160 mg/kg. The value of the MTD (expressed in mg/kg) is determined from the observation of the survival rates of the animals over a period of 14 days after a single administration of the product under consideration. The change in the weight of the animals is also monitored over this period. When that the value of the MTD is greater than 160 mg/kg, the value of the MTD is categorized as 160 mg/kg by default.

[3] = tested on: lymphoma L 1210; assay: In vivo antitumour activity, subcutaneous lymphoma L 1210, survival (T/C); design: species or system mouse
Description: The model of lymophoma L 1210 is a model of L 1210 leukemia cells of mouse origin grafted subcutaneously in the mouse. They give rise, in 100% of cases, to a rapid-growth subcutaneous solid tumour (L 1210 s.c.).
as §1, §2
ii)—The survival rate of the mice is calculated in the form or a ratio T/C, where: [formula]
This ratio represents the mean survival time of the […] of the batch of treated mice with respect to the mean survival time of the median mouse of the batch of control mice. Thus, a molecule induces a significant (P<0.05) increase in the survival of the animals when the T/C index exceeds 130%. On the other hand, it has a toxic effect when this T/C value is less than 70%. […]

[4] = tested on: B6D2F1/Jico mice; assay: Determination of the maximum tolerated dose (MTD); details: mouse, in vivo, ip
Description: as §3, §4

Row | SMILES | growth of the HS-MXT tumours (in words) [1] | Tumour area (expressed as %) [1] [%] | MTD at 14 days [2] [mg/kg] | mean survival time of the median mouse (in words) ([3]; subcutaneous lymphoma L 1210, vs control mice) | T/C (expressed a %) ([3]; survival ratio treated/control, L 1210 s.c., 1.25 mg/kg intraperitoneally, 3 injections per week for 3 weeks from D7) [%] | DMT (mg/kg) (Maximum Tolerated Doses) [4]
1 | O=C1c2cccnc2-c2nccc3ccnc1c23 [CRL 8293, 7H-Pyrido[4,3,2-de][1,10]phenanthroline-7-one] | very highly significant decrease | −45 | 10 | – | – | –
2 | O=C1c2ncccc2-c2nccc3ccnc1c23 [CRL 8294, 7H-Pyrido[4,3,2-de][1,7phenanthroline-7-one] | very highly significant decrease | −64 | – | significant extension | 136 | 10
